Read-outs that look alike come from different tables or passages of the source.
Tests used:
[1] = tested on: Pseudomonas syringae pv. tabaci; conditions: Pseudomonas syringae pv. tabaci; for Minimum inhibitory concentration, Average: average of triplicates
Protocol: (§1) Antimicrobial activity was tested against three categories of human and plant pathogenic microorganisms: Gram-positive (Bacillus subtilis, Bacillus cereus, Staphylococcus aureus), Gram-negative (Escherichia coli, Pseudomonas aeruginosa, Erwinia carotovora, Pseudomonas syringae pv. tabaci, Xanthomonas campestris pv. citri) and yeasts (Candida albicans, Cryptococcus neoformans), as previously reported. […] The full list of peptide MICs was published in an accompanying paper, and is available in the current publication as supplementary dataset (Supplementary dataset 01).
(§2) The determination of the minimum inhibitory concentration (MIC) of peptides was performed as described in “Encrypted Antimicrobial Peptides from Plant Proteins”[7]. Briefly, MICs were determined following protocols M7-A10 and M27-A3 from Clinical & Laboratory Standards Institute (CLSI) for bacteria and yeasts, respectively. Different concentrations of IAPs (0.5 to 256 μM) were tested against several microorganisms in a final volume of 100 µL. Three biological repetitions, with 2 technical replicates each, were performed for each test, on polystyrene flat-bottom 96 wells microplates. The minimum inhibitory concentration (MIC) was defined as the concentration at which no cells were detected when visualized by optical microscopy. Please refer to the literature[7] for further details of the microbiological assays.

Candida albicans = conditions: Candida albicans; for Minimum inhibitory concentration, Average: average of triplicates
Protocol: as §1, §2

Cryptococcus neoformans = conditions: Cryptococcus neoformans; for Minimum inhibitory concentration, Average: average of triplicates
Protocol: as §1, §2

Pseudomonas aeruginosa = tested on: Pseudomonas aeruginosa
Protocol: as §1, §2

Escherichia coli = conditions: Escherichia coli; for Minimum inhibitory concentration, Average: average of triplicates
Protocol: as §1, §2

Bacillus subtilis = conditions: Bacillus subtilis; for Minimum inhibitory concentration, Average: average of triplicates
Protocol: as §1, §2

Erwinia carotovora = conditions: Erwinia carotovora; for Minimum inhibitory concentration, Average: average of triplicates
Protocol: as §1, §2

Staphylococcus aureus = conditions: Staphylococcus aureus; for Minimum inhibitory concentration, Average: average of triplicates
Protocol: as §1, §2

Bacillus cereus = tested on: Bacillus cereus
Protocol: as §1, §2

Xanthomonas campestris = conditions: for Minimum inhibitory concentration, Average: average of triplicates
Protocol: as §1, §2

[2] = CLSI M27-A3, 0.5 to 256 μM tested, triplicate 1, also published in ref 7
[3] = Pseudomonas aeruginosa, CLSI M7-A10, triplicate 1
[4] = Pseudomonas aeruginosa, average of triplicates
[5] = Pseudomonas aeruginosa, triplicate 2
[6] = Pseudomonas aeruginosa, triplicate 3
[7] = Bacillus cereus, CLSI M7-A10, triplicate 1
[8] = Bacillus cereus, average of triplicates

| Sequence | Minimum inhibitory concentration ([1]; CLSI M7-A10, triplicate 1) [µM] | Minimum inhibitory concentration, Average [1] [µM] | Minimum inhibitory concentration ([1]; triplicate 2) [µM] | Minimum inhibitory concentration ([1]; triplicate 3) [µM] | Minimum inhibitory concentration (Candida albicans; [2]) [µM] | Minimum inhibitory concentration, Average (Candida albicans) [µM] | Minimum inhibitory concentration (Candida albicans; triplicate 2) [µM] | Minimum inhibitory concentration (Candida albicans; triplicate 3) [µM] | Minimum inhibitory concentration (Cryptococcus neoformans; CLSI M27-A3, triplicate 1) [µM] | Minimum inhibitory concentration, Average (Cryptococcus neoformans) [µM] | Minimum inhibitory concentration (Cryptococcus neoformans; triplicate 2) [µM] | Minimum inhibitory concentration (Cryptococcus neoformans; triplicate 3) [µM] | Minimum inhibitory concentration (Escherichia coli; CLSI M7-A10, triplicate 1) [µM] | Minimum inhibitory concentration, Average (Escherichia coli) [µM] | Minimum inhibitory concentration (Escherichia coli; triplicate 2) [µM] | Minimum inhibitory concentration (Escherichia coli; triplicate 3) [µM] | Minimum inhibitory concentration (Bacillus subtilis; CLSI M7-A10, triplicate 1) [µM] | Minimum inhibitory concentration, Average (Bacillus subtilis) [µM] | Minimum inhibitory concentration (Bacillus subtilis; triplicate 2) [µM] | Minimum inhibitory concentration (Bacillus subtilis; triplicate 3) [µM] | also measured |
| --- | --- | --- | --- | --- | --- | --- | --- | --- | --- | --- | --- | --- | --- | --- | --- | --- | --- | --- | --- | --- | --- |
| GSLHGFMYKYLKTLVLRLY [Zm01] | 32 | 32.0 | 32 | 32 | 4 | 6.7 | 8 | 8 | 4 | 4.0 | 4 | 4 | 8 | 13.3 | 16 | 16 | 8 | 8.0 | 8 | 8 | Minimum inhibitory concentration (Pseudomonas aeruginosa; [3]): 16 µM; Minimum inhibitory concentration, Average (Pseudomonas aeruginosa; [4]): 16.0 µM; Minimum inhibitory concentration (Pseudomonas aeruginosa; [5]): 16 µM; Minimum inhibitory concentration (Pseudomonas aeruginosa; [6]): 16 µM; Minimum inhibitory concentration (Erwinia carotovora; CLSI M7-A10, triplicate 1): 16 µM; Minimum inhibitory concentration, Average (Erwinia carotovora): 16.0 µM; Minimum inhibitory concentration (Erwinia carotovora; triplicate 2): 16 µM; Minimum inhibitory concentration (Erwinia carotovora; triplicate 3): 16 µM; Minimum inhibitory concentration (Staphylococcus aureus; CLSI M7-A10, triplicate 1): 16 µM; Minimum inhibitory concentration, Average (Staphylococcus aureus): 16.0 µM; Minimum inhibitory concentration (Staphylococcus aureus; triplicate 2): 16 µM; Minimum inhibitory concentration (Staphylococcus aureus; triplicate 3): 16 µM; Minimum inhibitory concentration (Bacillus cereus; [7]): 64 µM; Minimum inhibitory concentration, Average (Bacillus cereus; [8]): 44.7 µM; Minimum inhibitory concentration (Bacillus cereus; Bacillus cereus, triplicate 2): 64 µM; Minimum inhibitory concentration (Xanthomonas campestris; CLSI M7-A10, triplicate 1): 16 µM; Minimum inhibitory concentration, Average (Xanthomonas campestris): 16.0 µM; Minimum inhibitory concentration (Xanthomonas campestris; triplicate 2): 16 µM; Minimum inhibitory concentration (Xanthomonas campestris; triplicate 3): 16 µM |
| GSLHGFMYKYLKNMVLNLF [Tc06] | 16 | 16.0 | 16 | 16 | 4 | 4.0 | 4 | 4 | 8 | 10.7 | 8 | 16 | 32 | 32.0 | 32 | 32 | 16 | 16.0 | 16 | 16 | Minimum inhibitory concentration (Pseudomonas aeruginosa; [3]): 16 µM; Minimum inhibitory concentration, Average (Pseudomonas aeruginosa; [4]): 26.7 µM; Minimum inhibitory concentration (Pseudomonas aeruginosa; [5]): 32 µM; Minimum inhibitory concentration (Pseudomonas aeruginosa; [6]): 32 µM; Minimum inhibitory concentration (Erwinia carotovora; CLSI M7-A10, triplicate 1): 128 µM; Minimum inhibitory concentration, Average (Erwinia carotovora): 128.0 µM; Minimum inhibitory concentration (Erwinia carotovora; triplicate 2): 128 µM; Minimum inhibitory concentration (Erwinia carotovora; triplicate 3): 128 µM; Minimum inhibitory concentration (Staphylococcus aureus; CLSI M7-A10, triplicate 1): 8 µM; Minimum inhibitory concentration, Average (Staphylococcus aureus): 13.3 µM; Minimum inhibitory concentration (Staphylococcus aureus; triplicate 2): 16 µM; Minimum inhibitory concentration (Staphylococcus aureus; triplicate 3): 16 µM; Minimum inhibitory concentration (Bacillus cereus; [7]): 64 µM; Minimum inhibitory concentration, Average (Bacillus cereus; [8]): 64.0 µM; Minimum inhibitory concentration (Bacillus cereus; Bacillus cereus, triplicate 2): 64 µM; Minimum inhibitory concentration (Bacillus cereus; Bacillus cereus, triplicate 3): 64 µM; Minimum inhibitory concentration (Xanthomonas campestris; CLSI M7-A10, triplicate 1): 64 µM; Minimum inhibitory concentration, Average (Xanthomonas campestris): 64.0 µM; Minimum inhibitory concentration (Xanthomonas campestris; triplicate 2): 64 µM; Minimum inhibitory concentration (Xanthomonas campestris; triplicate 3): 64 µM |
| GKILKYLLYLLRKYANLIIR [Tc02] | 4 | 4.0 | 4 | 4 | 1 | 1.0 | 1 | 1 | 1 | 1.0 | 1 | 1 | 8 | 10.7 | 8 | 16 | 4 | 4.0 | 4 | 4 | Minimum inhibitory concentration (Pseudomonas aeruginosa; [3]): 16 µM; Minimum inhibitory concentration, Average (Pseudomonas aeruginosa; [4]): 16.0 µM; Minimum inhibitory concentration (Pseudomonas aeruginosa; [5]): 16 µM; Minimum inhibitory concentration (Pseudomonas aeruginosa; [6]): 16 µM; Minimum inhibitory concentration (Erwinia carotovora; CLSI M7-A10, triplicate 1): 16 µM; Minimum inhibitory concentration, Average (Erwinia carotovora): 16.0 µM; Minimum inhibitory concentration (Erwinia carotovora; triplicate 2): 16 µM; Minimum inhibitory concentration (Erwinia carotovora; triplicate 3): 16 µM; Minimum inhibitory concentration (Staphylococcus aureus; CLSI M7-A10, triplicate 1): 8 µM; Minimum inhibitory concentration, Average (Staphylococcus aureus): 8.0 µM; Minimum inhibitory concentration (Staphylococcus aureus; triplicate 2): 8 µM; Minimum inhibitory concentration (Staphylococcus aureus; triplicate 3): 8 µM; Minimum inhibitory concentration (Bacillus cereus; [7]): 16 µM; Minimum inhibitory concentration, Average (Bacillus cereus; [8]): 13.3 µM; Minimum inhibitory concentration (Bacillus cereus; Bacillus cereus, triplicate 2): 16 µM; Minimum inhibitory concentration (Bacillus cereus; Bacillus cereus, triplicate 3): 8 µM; Minimum inhibitory concentration (Xanthomonas campestris; CLSI M7-A10, triplicate 1): 16 µM; Minimum inhibitory concentration, Average (Xanthomonas campestris): 16.0 µM; Minimum inhibitory concentration (Xanthomonas campestris; triplicate 2): 16 µM; Minimum inhibitory concentration (Xanthomonas campestris; triplicate 3): 16 µM |
| FFYNVIKIYGNMAGRISK [Cs03] | 128 | 128.0 | 128 | 128 | 128 | 128.0 | 128 | 128 | 32 | 32.0 | 32 | 32 | 128 | 128.0 | 128 | 128 | 64 | 64.0 | 64 | 64 | Minimum inhibitory concentration (Pseudomonas aeruginosa): 512 µM; Minimum inhibitory concentration, Average (Pseudomonas aeruginosa): 512.0 µM; Minimum inhibitory concentration (Erwinia carotovora; CLSI M7-A10, triplicate 1): 16 µM; Minimum inhibitory concentration, Average (Erwinia carotovora): 16.0 µM; Minimum inhibitory concentration (Erwinia carotovora; triplicate 2): 16 µM; Minimum inhibitory concentration (Erwinia carotovora; triplicate 3): 16 µM; Minimum inhibitory concentration (Staphylococcus aureus; CLSI M7-A10, triplicate 1): 128 µM; Minimum inhibitory concentration, Average (Staphylococcus aureus): 128.0 µM; Minimum inhibitory concentration (Staphylococcus aureus; triplicate 2): 128 µM; Minimum inhibitory concentration (Staphylococcus aureus; triplicate 3): 128 µM; Minimum inhibitory concentration (Bacillus cereus): 512 µM; Minimum inhibitory concentration, Average (Bacillus cereus): 512.0 µM; Minimum inhibitory concentration (Xanthomonas campestris; CLSI M7-A10, triplicate 1): 512 µM; Minimum inhibitory concentration, Average (Xanthomonas campestris): 512.0 µM; Minimum inhibitory concentration (Xanthomonas campestris; triplicate 2): 512 µM; Minimum inhibitory concentration (Xanthomonas campestris; triplicate 3): 512 µM |
